From publication PMC5751249, “Anti-Diabetic Effect of Organo-Chalcogen (Sulfur and Selenium) Zinc Complexes with Hydroxy-Pyrone Derivatives on Leptin-Deficient Type 2 Diabetes Model ob/ob Mice” (International Journal of Molecular Sciences, 2017)

Assays:
[1] = system: type 2 diabetic ob/ob mice; assay: Daily oral treatment of ob/ob mice for 28 days: blood glucose, body weight, water intake; type: in vivo
Protocol: The anti-diabetic effects of both [Zn(hmpt)2] and [Zn(hmps)2] were examined in ob/ob mice. The ob/ob and +/+ mice were used as type 2 diabetic and normal (non-diabetic) mice, respectively. The ob/ob (10-week-old) and +/+ (10-week-old) mice received daily oral treatment of either Zn complexes dissolved in PEG-400 or PEG-400 only, respectively. The mice received oral treatments of [Zn(hmpt)2] or [Zn(hmps)2] at doses of 2.5–10 mg Zn/kg or 1.0–5.0 mg Zn/kg for 28 days, respectively. Blood glucose levels (BGL) were measured using a Glucocard (Arkray, Kyoto, Japan) just before treatment with the Zn complexes, and the doses were regulated based on the BGL. Over 28 days, BGL, body weight, food intake, and water intake were measured every day. The number of normal mice (+/+ mice), control mice (ob/ob mice), [Zn(hmpt)2]-treated, and [Zn(hmps)2]-treated mice was 6, 8, 8, and 8 in the initial animal experiments, respectively. This was modified to 6, 6, 7, and 8 after the end of experiments as two control mice died naturally by the end of experiments, and one [Zn(hmpt)2]-treated mouse died from an accident during the oral glucose tolerance test.

[2] = system: type 2 diabetic ob/ob mice; assay: Histopathology and morphometric analysis of pancreas and liver (HE staining); type: in vivo; conditions: 14-week-old mice
Protocol: Excised pancreas and liver from 14-week-old mice were immediately fixed in 10% buffered formalin for a week, sectioned at a thickness of 3 μm, and stained with HE for histopathological examination. HE-stained tissue sections were scanned using a Moticam T2 (Shimadzu Co., Kyoto, Japan) to prepare digital images. Both pancreatic islet area and glycogen and fat deposition areas were calculated with the dedicated image processing software WinROOF (Mitani Corp., Tokyo, Japan).

[3] = system: Isolated male Wistar rat epididymal adipocytes; assay: Glucose uptake into adipocytes (in vitro insulin-mimetic activity); type: cell-based; conditions: 20 μM Zn complex, means ± SDs, three runs
Protocol: The in vitro insulin-mimetic activities of Zn complexes were determined by the inhibition of FFA release from adipocytes and increase of glucose uptake into adipocytes. Isolated male Wistar rat epididymal adipocytes (1.0 × 10^6 cells/mL) were prepared and pre-incubated separately with various concentrations of the different Zn complexes in 5 mM glucose in Krebs-Ringer bicarbonate buffer (120 mM NaCl, 1.3 mM CaCl2, 1.2 mM MgSO4, 4.8 mM KCl, 1.2 mM KH2PO4, 24 mM NaHCO3, pH 7.4) containing 2% BSA, with shaking at 100 cycles/min for 30 min at 37 °C. Adrenaline (15 μL, 0.2 mM) was then added to the mixtures, and the resultant solutions were then incubated for 3 h at 37 °C. The reaction mixture was subsequently centrifuged at 650× g for 10 min at 4 °C. FFA levels in the extracellular solutions were determined using an FFA measuring kit (NEFA C-test Wako) and the IC50 value, which is the 50% inhibitory concentration of FFA-release in each complex, was calculated. Glucose concentrations in the solutions with 20 μM Zn complexes were determined using a Fuji Dry Chem system (Fuji Medical Co., Tokyo, Japan) and then the glucose uptake quantities/(1.0 × 10^6 cells) in the 20 μM Zn complexes were calculated.

[4] = system: type 2 diabetic ob/ob mice; type: in vivo
Protocol: (§1) After OGTT, HbA1c levels were measured in blood obtained from the mouse tail vein using an immunoassay with a DCA 2000 analyzer (Bayer-Sankyo Co., Ltd., Tokyo, Japan). The mice were subjected to a 12-h fast and blood samples were collected from the orbital vein or postcaval vein under isoflurane anesthesia using heparinized tools. Collected samples were then centrifuged at 650× g for 10 min at 4 °C, and the resultant plasma samples were used to analyze various biochemical parameters. The levels of AST, ALT, BUN, TG, T-CHO, and ALP in plasma samples were determined using a Fuji Dry Chem system. The plasma levels of insulin and adiponectin were determined using an ultra-sensitive Mouse Insulin ELISA Kit (Morinaga Institute of Biological Science, Inc., Kanagawa, Japan) and an adiponectin immunoassay kit (R&D Systems Inc., Minneapolis, MN, USA), respectively. After collecting the blood samples, mice were subjected to dissection under isoflurane anesthesia, and the resultant tissue samples were washed in saline. Each of the samples was dehydrated for a week in desiccators, weighed, and then heated in 5% HNO3 (5 mL) for 5 h at 110 °C in a closed system. The resultant solution was centrifuged at 1250× g for 15 min, and the supernatant was diluted using 5% HNO3. Both Zn and Se concentrations in organs were determined with an ICP-MS Agilent 7700x/Mass Hunter instrument (Agilent Technologies Inc., Santa Clara, CA, USA). The Zn and Se concentrations in each sample were calculated using linear regression of the standard curves prepared from standard solutions of the respective trace elements.

[5] = system: type 2 diabetic ob/ob mice; assay: Oral glucose tolerance test (OGTT) after 28 days treatment; type: in vivo
Protocol: After treatment with [Zn(hmpt)2] or [Zn(hmps)2] for 28 days, OGTTs were performed. The ob/ob mice and +/+ mice were fasted for 12-h and glucose (1 g/kg body weight) was given orally. Blood samples were obtained from the tail vein at 0, 15, 30, 45, 60, 90, and 120 min after glucose administration. Blood glucose concentrations were measured using a Glucocard.

[6] = Organ distribution of Zn and Se by ICP-MS after 28 days oral treatment; type: in vivo, mice
Protocol: as §1

[7] = system: type 2 diabetic ob/ob mice; assay: Triglyceride and glycogen contents in the liver; type: in vivo; conditions: ob/ob mice after 28 days oral treatment
Protocol: Lipids in the liver were extracted according to modified Folch method. TG in the extracted lipids was detected using the triglyceride E test wako (Wako Pure Chemicals Co., Osaka, Japan). Glycogen in the liver was extracted with a strong base (30% KOH aq). Then, ethanol precipitation methods (using 95% ethanol and saturated Na2SO4), hydrolysis, and neutralization (with 2.4 M HCl aq and 0.8 M NaOH aq) of the glycogen extracts were performed, resulting in degradation to glucose solution. To detect the glucose levels in the solution using the glucose CII test wako (Wako Pure Chemicals Co., Osaka, Japan), glycogen levels in the liver were estimated. Because the liver sample of normal mice was used up during TG detection and ICP-MS analysis, glycogen content in the liver could not be detected.

male Wistar rats = system: male Wistar rats; set-up: method as in earlier work; conditions: in food 10 µg sodium selenite/kg/day (4.6 µg Se/kg/day), 3 months; cited from earlier work

SMILES: Cc1occc(=S)c1[O-].Cc1occc(=S)c1[O-].[Zn+2] [[Zn(hmpt)2], bis(3-hydroxy-2-methyl-4(H)-pyran-4-thiono)Zn]
- Blood glucose level by the end of treatment ([1]; [Zn(hmpt)2] 2.5–10 mg Zn/kg, [Zn(hmps)2] 1.0–5.0 mg Zn/kg): approximately 200 mg/dL
- Water intake on the final day ([1]; control 12.6 ± 1.6 g, p < 0.01 vs. control): 7.5 ± 2.5 g
- Body weight change during treatment ([1]; loss seen day 22 to 25, recovered after dose reduction): body weight loss
- Pancreatic islet numbers per section ([2]; among normal, control and treated mice): not significantly changed
- Glycogen and fat deposition area ratio in the liver ([2]; between control and treated mice): no significant differences
- Pancreatic islet area ratio and size ([2]; compared with normal mice): significantly increased
- Glucose Uptake [3]: 79 ± 26 µg/10^6 Cells
- ALP (plasma) ([4]; mouse, in vivo, po): 360 ± 88 U/L
- ALT (plasma) ([4]; mouse, in vivo, po): 118 ± 68 U/L
- AST (plasma) ([4]; mouse, in vivo, po): 103 ± 25 U/L
- BUN (plasma) ([4]; mouse, in vivo, po): 23 ± 2 **^,## mg/dL
- Insulin (fasting plasma) ([4]; ob/ob mice after 28 days oral treatment, control 2.2 ± 1.0): 0.9 ± 0.3 ng/mL
- HbA1c ([4]; ob/ob mice after 28 days oral treatment, control 7.9 ± 0.8): 6.5 ± 0.7 **^,## %
- Adiponectin (plasma) ([4]; ob/ob mice after 28 days oral treatment, control 8.2 ± 1.1): 9.4 ± 0.8 µg/mL
- TG (plasma) ([4]; ob/ob mice after 28 days oral treatment, control 83 ± 16): 76 ± 25 mg/dL
- T-CHO (plasma) ([4]; ob/ob mice after 28 days oral treatment, control 195 ± 16): 189 ± 42 mg/dL
- Area under the blood glucose concentration-time curve (AUC) in OGTT ([5]; 1 g glucose/kg oral, after 28 days treatment, compared with control mice): significantly decreased
- Fasting blood glucose level (0 min of OGTT) ([5]; ob/ob mice after 28 days oral treatment, 12-h fast, control 237 ± 52 mg/dL): 143 ± 75 mg/dL
- Se concentration, kidney ([6]; dry tissue, ob/ob mice after 28 days oral treatment, control 6.4 ± 0.2): 5.8 ± 0.5 µg/g
- Zn concentration, kidney ([6]; dry tissue, ob/ob mice after 28 days oral treatment, control 67 ± 3): 73 ± 4 µg/g
- Δ[Zn], bone ([6]; mouse, in vivo, po): 517 nmol/g
- Δ[Zn], kidney ([6]; mouse, in vivo, po): 86 nmol/g
- Δ[Zn], liver ([6]; mouse, in vivo, po): 453 nmol/g
- Δ[Zn], pancreas ([6]; mouse, in vivo, po): 302 nmol/g
- Δ[Zn], plasma ([6]; mouse, in vivo, po): 3 nmol/g
- Glycogen content in the liver ([7]; control 0.08 ± 0.04): 0.03 ± 0.01 mg/g liver
- TG content in the liver ([7]; control 437 ± 139): 309 ± 134 mg/g liver

SMILES: O=[Se]([O-])[O-].[Na+].[Na+] [sodium selenite]
- Hepatic histology finding (male Wistar rats): necrotic areas in hepatic sections were observed
